Measurements reported in US9079901B2, “Fused heterocyclic compounds as ion channel modulators” (Gilead Sciences, Inc., priority 2010, dated 2015).

Each compound was assayed against wild-type human cardiac sodium channel, hNav1.5 (late sodium current) in HEK293 cells (Homo sapiens, UniProt Q14524) (assay: Late INa screening assay (automated whole-cell patch clamp, PatchXpress)). Conditions: HEK293, compound at 1 μM; late INa generated with 10 μM Tefluthrin (or 50 nM ATX II); HEK293 hNav1.5; read-out: Late INa 1 μM (percent block of late INa).
wild-type human cardiac sodium channel, hNav1.5 (late sodium current) in HEK293 cells, sequence (Q14524 whole entry): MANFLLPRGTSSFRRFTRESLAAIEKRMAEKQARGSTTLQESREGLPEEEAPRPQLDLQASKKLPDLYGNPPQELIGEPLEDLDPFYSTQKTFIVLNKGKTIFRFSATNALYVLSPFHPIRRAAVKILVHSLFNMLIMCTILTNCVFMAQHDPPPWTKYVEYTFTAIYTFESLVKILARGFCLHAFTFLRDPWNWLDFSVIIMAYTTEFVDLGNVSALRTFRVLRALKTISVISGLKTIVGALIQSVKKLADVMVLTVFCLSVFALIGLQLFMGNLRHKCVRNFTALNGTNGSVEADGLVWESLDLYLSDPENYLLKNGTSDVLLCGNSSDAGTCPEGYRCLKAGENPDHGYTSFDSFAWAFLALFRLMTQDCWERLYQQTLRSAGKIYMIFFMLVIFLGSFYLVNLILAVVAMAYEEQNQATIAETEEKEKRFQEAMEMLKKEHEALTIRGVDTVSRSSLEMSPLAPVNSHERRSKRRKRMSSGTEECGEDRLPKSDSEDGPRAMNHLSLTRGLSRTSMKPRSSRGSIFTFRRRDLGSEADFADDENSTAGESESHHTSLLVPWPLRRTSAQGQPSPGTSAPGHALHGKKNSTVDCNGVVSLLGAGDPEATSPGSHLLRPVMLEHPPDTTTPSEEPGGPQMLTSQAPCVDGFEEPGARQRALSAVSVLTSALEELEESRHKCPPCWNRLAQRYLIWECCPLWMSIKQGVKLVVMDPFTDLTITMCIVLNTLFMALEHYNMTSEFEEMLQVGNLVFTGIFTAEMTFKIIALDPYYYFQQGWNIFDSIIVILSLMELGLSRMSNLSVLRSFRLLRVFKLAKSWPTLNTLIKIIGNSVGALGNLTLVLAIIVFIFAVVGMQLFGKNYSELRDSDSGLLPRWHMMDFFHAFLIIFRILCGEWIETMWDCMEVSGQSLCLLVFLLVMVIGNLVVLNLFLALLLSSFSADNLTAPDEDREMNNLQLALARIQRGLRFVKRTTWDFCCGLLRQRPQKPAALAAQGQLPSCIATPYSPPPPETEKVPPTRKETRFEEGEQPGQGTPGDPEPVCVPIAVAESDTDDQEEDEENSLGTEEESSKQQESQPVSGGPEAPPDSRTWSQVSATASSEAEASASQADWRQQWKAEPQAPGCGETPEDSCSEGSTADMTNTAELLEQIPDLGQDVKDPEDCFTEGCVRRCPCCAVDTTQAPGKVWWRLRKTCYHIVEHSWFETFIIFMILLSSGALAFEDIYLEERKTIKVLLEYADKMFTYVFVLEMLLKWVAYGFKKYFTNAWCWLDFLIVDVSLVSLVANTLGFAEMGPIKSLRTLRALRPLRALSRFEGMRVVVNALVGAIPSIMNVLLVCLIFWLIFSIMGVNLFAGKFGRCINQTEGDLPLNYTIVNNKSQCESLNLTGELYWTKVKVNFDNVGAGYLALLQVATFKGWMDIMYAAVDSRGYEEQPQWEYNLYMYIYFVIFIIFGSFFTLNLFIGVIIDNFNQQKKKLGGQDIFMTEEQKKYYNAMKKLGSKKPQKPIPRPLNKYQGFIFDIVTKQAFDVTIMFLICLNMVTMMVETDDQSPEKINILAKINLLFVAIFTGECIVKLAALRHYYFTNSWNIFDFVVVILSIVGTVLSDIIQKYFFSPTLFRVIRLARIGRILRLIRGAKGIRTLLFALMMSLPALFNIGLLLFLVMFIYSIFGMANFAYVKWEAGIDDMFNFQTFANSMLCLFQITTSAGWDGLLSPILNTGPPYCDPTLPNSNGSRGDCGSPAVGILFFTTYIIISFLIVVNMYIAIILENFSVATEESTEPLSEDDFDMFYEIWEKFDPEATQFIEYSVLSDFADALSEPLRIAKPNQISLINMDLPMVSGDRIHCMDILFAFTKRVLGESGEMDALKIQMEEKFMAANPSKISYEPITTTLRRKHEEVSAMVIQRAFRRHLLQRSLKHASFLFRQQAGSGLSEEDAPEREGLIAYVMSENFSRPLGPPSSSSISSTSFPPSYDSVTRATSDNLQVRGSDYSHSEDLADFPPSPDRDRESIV
Type: cell-based
Description: The late sodium current (Late INa) and peak sodium current (Peak INa) assays are performed on an automated electrophysiology platform, PatchXpress 7000A (MDS Analytical Technologies, Sunnyvale, Calif.), which uses the whole cell patch clamp technique to measure currents through the cell membrane of up to 16 cells at a time. The assay uses an HEK293 (human embryonic kidney) cell line heterologously expressing the wild-type human cardiac sodium channel, hNav1.5, purchased from Millipore (Billerica, Mass.). No beta subunits were coexpressed with the Na channel alpha subunit. Cells are maintained with standard tissue culture procedures and stable channel expression is maintained with 400 μg/ml Geneticin in the culture medium. Cells isolated for use on PatchXpress are incubated for 5 minutes in Versene 1× and then for 2 minutes in 0.0125% Trypsin-EDTA (both at 37° C.) to ensure that 80-90% of the cells are single and not part of a cell cluster. Experiments are carried out at 24-27° C.
For both the Late INa and Peak INa assays, series resistance compensation is set to 50% and whole-cell compensation is performed automatically. Currents are low-pass filtered at 10 kHz and digitized at 31.25 kHz. Currents through open sodium channels are automatically recorded and stored in the DataXpress2 database (MDS Analytical Technologies, Sunnyvale, Calif.). Analysis is performed using DataXpress2 analysis software and data are compiled in Excel.
Compound stocks are routinely made in glass vials to 10 mM in dimethyl sulfoxide (DMSO). In some cases, when compounds are not soluble in DMSO, they are made in 100% ethanol. Stocks are sonicated as necessary. The extracellular solution for screening Late INa is composed of: 140 mM NaCl, 4 mM KCl, 1.8 mM CaCl2, 0.75 mM MgCl2, and 5 mM HEPES with pH adjusted to 7.4 using NaOH. The extracellular solution for screening Peak INa is composed of: 20 mM NaCl, 120 mM N-methyl-D glucamine, 4 mM KCl, 1.8 mM CaCl2, 0.75 mM MgCl2, and 5 mM HEPES with pH adjusted to 7.4 using HCl. The intracellular solution used to perfuse the inside of the cells for both the Late INa and Peak INa assays contains: 120 mM CsF, 20 mM CsCl, 5 mM EGTA, 5 mM HEPES and pH adjusted to 7.4 with CsOH. Compounds are diluted in extracellular solution to 10 μM in glass vials and then transferred to glass well plates before robotic addition to the cells. The 0Na extracellular solution used at the end of each experiment for the Late INa and Peak INa assays to measure baseline current contains: 140 mM N-methyl-D-glucamine; 4 mM KCl; 1.8 mM CaCl2; 0.75 mM MgCl2; 5 mM HEPES and pH was adjusted to 7.4 with HCl.
For the Late INa assay, sodium channels are activated every 10 seconds (0.1 Hz) by depolarizing the cell membrane to −20 mV for 250 milliseconds (ms) from a holding potential of −120 mV. In response to a −20 mV voltage step, typical Nav1.5 sodium currents activate rapidly to a peak negative current and then inactivate nearly completely within 3-4 ms.
All compounds are tested to determine their activity in blocking the late sodium current. Late INa current is generated by adding 10 μM Tefluthrin (pyrethroid) to the extracellular solution while recording Na currents. For some experiments, 50 nM ATX II (sea anemone toxin), another late INa activator, was used to generate the late component. Both activators generate late components that are large enough that block of the late component by compounds can be measured easily. For the purposes of the screening, late INa is defined as the mean current between 225 ms and 250 ms after stepping to −20 mV to activate Na channels. After establishing the whole cell recording configuration, late INa activators are added to each well 4 times over a 16-17 minute period so that the late component of the Na current reaches a stable value. Compounds are then added (typically at 10 μM), in the presence of late INa activator, with 3 additions over the course of 7 or 8 minutes. […]
For `O=c1n(CCN2CCC(F)(F)CC2)nc2ccc(-c3ccc(OC(F)(F)F)cc3)cn12` [compound 50, 2-(2-(4,4-difluoropiperidin-1-yl)ethyl)-6-(4-(trifluoromethoxy)phenyl)-[1,2,4]triazolo[4,3-a]pyridin-3(2H)-one], the inhibition at 1 µM was 14.2%. `O=c1n(CCCOc2ccccc2F)nc2ccc(-c3ccc(OC(F)(F)F)cc3)cn12` [compound 51, 2-(3-(2-fluorophenoxy)propyl)-6-(4-(trifluoromethoxy)phenyl)-[1,2,4]triazolo[4,3-a]pyridin-3(2H)-one] was tested, and the inhibition at 1 µM was 25.6%. With `O=c1n(CCCOc2ccccc2Cl)nc2ccc(-c3ccc(OC(F)(F)F)cc3)cn12` [compound 52, 2-(3-(2-chlorophenoxy)propyl)-6-(4-(trifluoromethoxy)phenyl)-[1,2,4]triazolo[4,3-a]pyridin-3(2H)-one] the inhibition at 1 µM was 33.3%. Compound `Cc1noc(Cn2nc3ccc(-c4ccc(Oc5ccc(Cl)cc5)cc4)cn3c2=O)n1` [compound 53, 6-(4-(4-chlorophenoxy)phenyl)-2-((3-methyl-1,2,4-oxadiazol-5-yl)methyl)-[1,2,4]triazolo[4,3-a]pyridin-3(2H)-one] has an inhibition at 1 µM of 55.9%. `O=c1n(CCOc2cccc(Cl)c2)nc2ccc(-c3ccc(OC(F)(F)F)cc3)cn12` [compound 54, 2-(2-(3-chlorophenoxy)ethyl)-6-(4-(trifluoromethoxy)phenyl)-[1,2,4]triazolo[4,3-a]pyridin-3(2H)-one] was tested, and the inhibition at 1 µM was 20.2%. `O=c1n(CCOc2ccc(F)cc2)nc2ccc(-c3ccc(OC(F)(F)F)cc3)cn12` [compound 55, 2-(2-(4-fluorophenoxy)ethyl)-6-(4-(trifluoromethoxy)phenyl)-[1,2,4]triazolo[4,3-a]pyridin-3(2H)-one] was tested, and the inhibition at 1 µM was 24.3%. `O=c1n(CCc2ncccc2Br)nc2ccc(-c3ccc(OC(F)(F)F)cc3)cn12` [compound 56, 2-(2-(3-bromopyridin-2-yl)ethyl)-6-(4-(trifluoromethoxy)phenyl)-[1,2,4]triazolo[4,3-a]pyridin-3(2H)-one] was tested, and the inhibition at 1 µM was 39.8%. `O=c1n(CCc2cc(C3CC3)ccn2)nc2ccc(-c3ccc(OC(F)(F)F)cc3)cn12` [compound 57, 2-(2-(4-cyclopropylpyridin-2-yl)ethyl)-6-(4-(trifluoromethoxy)phenyl)-[1,2,4]triazolo[4,3-a]pyridin-3(2H)-one] was tested, and the inhibition at 1 µM was 20.7%. For `Cc1ccnc(CCn2nc3ccc(-c4ccc(OC(F)(F)F)cc4)cn3c2=O)c1` [compound 58, 2-(2-(4-methylpyridin-2-yl)ethyl)-6-(4-(trifluoromethoxy)phenyl)-[1,2,4]triazolo[4,3-a]pyridin-3(2H)-one], the inhibition at 1 µM was 14.9%. `O=c1n(CCc2ccc(F)cc2)nc2ccc(-c3ccc(OC(F)(F)F)cc3)cn12` [compound 59, 2-(4-fluorophenethyl)-6-(4-(trifluoromethoxy)phenyl)-[1,2,4]triazolo[4,3-a]pyridin-3(2H)-one] was tested, and the inhibition at 1 µM was 27.1%. `O=c1n(CCc2ncccc2C2CC2)nc2ccc(-c3ccc(OC(F)(F)F)cc3)cn12` [compound 60, 2-(2-(3-cyclopropylpyridin-2-yl)ethyl)-6-(4-(trifluoromethoxy)phenyl)-[1,2,4]triazolo[4,3-a]pyridin-3(2H)-one] gave an inhibition at 1 µM of 34.1%. Compound `Cc1cccnc1CCn1nc2ccc(-c3ccc(OC(F)(F)F)cc3)cn2c1=O` [compound 61, 2-(2-(3-methylpyridin-2-yl)ethyl)-6-(4-(trifluoromethoxy)phenyl)-[1,2,4]triazolo[4,3-a]pyridin-3(2H)-one] has an inhibition at 1 µM of 41.5%. With `O=c1n(Cc2cccc(C(F)(F)F)n2)nc2ccc(-c3ccc(OC(F)(F)F)cc3)cn12` [compound 62, 6-(4-(trifluoromethoxy)phenyl)-2-((6-(trifluoromethyl)pyridin-2-yl)methyl)-[1,2,4]triazolo[4,3-a]pyridin-3(2H)-one] the inhibition at 1 µM was 21.6%. Work on `O=c1n(CCc2c(F)cccc2F)nc2ccc(-c3ccc(OC(F)(F)F)cc3)cn12` [compound 63, 2-(2,6-difluorophenethyl)-6-(4-(trifluoromethoxy)phenyl)-[1,2,4]triazolo[4,3-a]pyridin-3(2H)-one] yielded an inhibition at 1 µM of 46.9%. `O=c1n(CCCc2ccc(F)c(Br)c2)nc2ccc(-c3ccc(OC(F)(F)F)cc3)cn12` [compound 64, 2-(3-(3-bromo-4-fluorophenyl)propyl)-6-(4-(trifluoromethoxy)phenyl)-[1,2,4]triazolo[4,3-a]pyridin-3(2H)-one] showed an inhibition at 1 µM of 16.7%. Work on `O=c1n(CCOc2cccc(C(F)(F)F)n2)nc2ccc(-c3ccc(OC(F)(F)F)cc3)cn12` [compound 65, 6-(4-(trifluoromethoxy)phenyl)-2-(2-(6-(trifluoromethyl)pyridin-2-yloxy)ethyl)-[1,2,4]triazolo[4,3-a]pyridin-3(2H)-one] yielded an inhibition at 1 µM of 21.1%. With `O=c1n(CCCOc2ccccc2C(F)(F)F)nc2ccc(-c3ccc(OC(F)(F)F)cc3)cn12` [compound 66, 6-(4-(trifluoromethoxy)phenyl)-2-(3-(2-(trifluoromethyl)phenoxy)propyl)-[1,2,4]triazolo[4,3-a]pyridin-3(2H)-one] the inhibition at 1 µM was 14.7%. `COc1cc(F)ccc1OCCCn1nc2ccc(-c3ccc(OC(F)(F)F)cc3)cn2c1=O` [compound 67, 2-(3-(4-fluoro-2-methoxyphenoxy)propyl)-6-(4-(trifluoromethoxy)phenyl)-[1,2,4]triazolo[4,3-a]pyridin-3(2H)-one] was tested, and the inhibition at 1 µM was 19.2%. For `O=c1n(CC#Cc2cnccc2Cl)nc2ccc(-c3ccc(OC(F)(F)F)cc3)cn12` [compound 68, 2-(3-(4-chloropyridin-3-yl)prop-2-ynyl)-6-(4-(trifluoromethoxy)phenyl)-[1,2,4]triazolo[4,3-a]pyridin-3(2H)-one], the inhibition at 1 µM was 11.1%. `COc1ccccc1OCCn1nc2ccc(-c3ccc(OC(F)(F)F)cc3)cn2c1=O` [compound 69, 2-(2-(2-methoxyphenoxy)ethyl)-6-(4-(trifluoromethoxy)phenyl)-[1,2,4]triazolo[4,3-a]pyridin-3(2H)-one] gave an inhibition at 1 µM of 32.5%. With `N#Cc1ccccc1OCCCn1nc2ccc(-c3ccc(OC(F)(F)F)cc3)cn2c1=O` [compound 70, 2-(3-(3-oxo-6-(4-(trifluoromethoxy)phenyl)-[1,2,4]triazolo[4,3-a]pyridin-2(3H)-yl)propoxy)benzonitrile] the inhibition at 1 µM was 29.9%. `COC[C@@H](Cn1nc2ccc(-c3ccc(OC(F)(F)F)cc3)cn2c1=O)Oc1ncccc1C(F)(F)F` [compound 72, (R)-2-(3-methoxy-2-(3-(trifluoromethyl)pyridin-2-yloxy)propyl)-6-(4-(trifluoromethoxy)phenyl)-[1,2,4]triazolo[4,3-a]pyridin-3(2H)-one] gave an inhibition at 1 µM of 41.9%. `O=c1n(CCc2cccnc2)nc2ccc(-c3ccc(OC(F)(F)F)cc3)cn12` [compound 73, 2-(2-(pyridin-3-yl)ethyl)-6-(4-(trifluoromethoxy)phenyl)-[1,2,4]triazolo[4,3-a]pyridin-3(2H)-one] gave an inhibition at 1 µM of 10.4%.

Same assay, conditions: compound at 1 μM; late INa generated with 10 μM Tefluthrin (or 50 nM ATX II); HEK293 hNav1.5
With `O=c1n(CCCOc2ccccc2C(F)(F)F)nc2ccc(-c3ccc(OC(F)(F)F)cc3)cn12` [compound 71, 6-(4-(trifluoromethoxy)phenyl)-2-(3-(2-(trifluoromethyl)phenoxy)propyl)-[1,2,4]triazolo[4,3-a]pyridin-3(2H)-one] the “Late INa 1 μM (percent block of late INa)” value was 26.0692%.
